According to patent US11840686B2, “Modulation of prekallikrein (PKK) expression” (Ionis Pharmaceuticals, Inc., priority 2013, dated 2023):
Strand notation (5' to 3'): a small letter for the sugar, then the base; units joined by * are phosphorothioate-linked, units joined directly phosphodiester-linked; [ ] holds rarer units or linkages, { } end groups; capitals alone tell only the bases. e = 2'-O-(2-methoxyethyl) (MOE); [5mC] = 5-methylcytosine; d = 2'-deoxy (DNA)

Legend:
human PKK mRNA [1] = assay: Antisense inhibition of human PKK mRNA in HepaRG cells, 3,000 nM (Example 1); format: cell-based; settings: relative to untreated control cells
Procedure, shortened: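 Values give percent PKK mRNA reduction relative to untreated controls, normalised to RIBOGREEN total RNA. mRNA was quantified by real-time PCR (RTS3454) about 24 h after electroporation. Each 20-mer MOE gapmer was delivered at 3,000 nM into 20,000 HepaRG cells per well.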

human PKK mRNA [2] = assay: Dose-dependent antisense inhibition of human PKK in HepaRG cells, 0.12-10.00 uM (Example 4); format: cell-based; settings: electroporation, ~16 h
Procedure: Cells were plated at a density of 20,000 cells per well and transfected using electroporation with 0.12 μM, 0.37 μM, 1.11 μM, 3.33 μM, and 10.00 μM concentrations of antisense oligonucleotide. After a treatment period of approximately 16 hours, RNA was isolated from the cells and PKK mRNA levels were measured by quantitative real-time PCR. Human PKK primer probe set RTS3454 was used to measure mRNA levels. PKK mRNA levels were adjusted according to total RNA content, as measured by RIBOGREEN®. The antisense oligonucleotides were tested in a series of experiments that had similar culture conditions. Results are presented as percent inhibition of PKK, relative to untreated control cells.
The half maximal inhibitory concentration (IC50) of each oligonucleotide is also presented.

[3] = Table 1, PKK mRNA, HepaRG cells, 3,000 nM, electroporation, ~24 h
[4] = Table 2, PKK mRNA, HepaRG cells, 3,000 nM, electroporation, ~24 h

Substance	% inhibition (human PKK mRNA [1]; [3]) [%]	percent inhibition of PKK at 0.12 μM (human PKK mRNA [2]; Table 32, 0.12 μM) [%]	percent inhibition of PKK at 0.37 μM (human PKK mRNA [2]; Table 32, 0.37 μM) [%]	percent inhibition of PKK at 1.11 μM (human PKK mRNA [2]; Table 32, 1.11 μM) [%]	percent inhibition of PKK at 3.33 μM (human PKK mRNA [2]; Table 32, 3.33 μM) [%]	percent inhibition of PKK at 10.00 μM (human PKK mRNA [2]; Table 32, 10.00 μM) [%]	IC50 (human PKK mRNA [2]; Table 32, PKK mRNA) [nM]	% inhibition (human PKK mRNA [1]; [4]) [%]	percent inhibition of PKK at 0.12 μM (human PKK mRNA [2]; Table 33, 0.12 μM) [%]	percent inhibition of PKK at 0.37 μM (human PKK mRNA [2]; Table 33, 0.37 μM) [%]	percent inhibition of PKK at 1.11 μM (human PKK mRNA [2]; Table 33, 1.11 μM) [%]	percent inhibition of PKK at 3.33 μM (human PKK mRNA [2]; Table 33, 3.33 μM) [%]	percent inhibition of PKK at 10.00 μM (human PKK mRNA [2]; Table 33, 10.00 μM) [%]	IC50 (human PKK mRNA [2]; Table 33, PKK mRNA) [nM]	% inhibition (human PKK mRNA [1]; Table 4, HepaRG cells, electroporation with 3,000 nM antisense oligonucleotide, approx. 24 hours, PKK mRNA by RT-PCR (RTS3454)) [%]
530971 (antisense eG*eG*eA*eA*e[5mC]*dT*dT*dG*dG*dT*dG*dT*dG*d[5mC]*d[5mC]*eA*e[5mC]*eT*eT*eT) [compound 530971]	85	12	40	52	66	70	1300								
531055 (antisense e[5mC]*e[5mC]*e[5mC]*eT*eT*d[5mC]*dT*dT*dT*dA*dT*dA*dG*d[5mC]*d[5mC]*eA*eG*e[5mC]*eA*e[5mC]) [compound 531055]								68	3	28	64	76	81	900	
531232 (e[5mC]*eT*eG*eT*eA*d[5mC]*dT*dA*dG*dT*dT*dT*d[5mC]*d[5mC]*dT*eA*eT*eA*eA*e[5mC]; antisense) [compound 531232]									15	26	40	62	76	1700	85
531022 (eG*eT*eA*eA*eT*dG*dT*d[5mC]*dT*dG*dA*d[5mC]*dA*dG*dA*eT*eT*eT*eA*eA; antisense) [compound 531022]		0	0	32	62	77	2200	74							
531026 (antisense eA*eT*e[5mC]*eA*eT*dG*dA*dT*dT*d[5mC]*d[5mC]*d[5mC]*dT*dT*d[5mC]*eT*eG*eA*eG*eA) [compound 531026]								73	23	26	49	75	85	1000	
531002 (eG*eA*eG*e[5mC]*eT*d[5mC]*d[5mC]*d[5mC]*dT*dT*dG*dT*dG*dT*d[5mC]*e[5mC]*e[5mC]*eA*eT*eA; antisense) [compound 531002]	85	6	28	58	82	86	900								
530959 (antisense eT*e[5mC]*eA*eA*e[5mC]*dA*d[5mC]*dT*dG*d[5mC]*dT*dA*dA*d[5mC]*d[5mC]*eT*eT*eA*eG*eA) [compound 530959]	60	12	27	53	80	94	900								
530967 (antisense e[5mC]*eA*eA*e[5mC]*e[5mC]*dA*dA*dT*dT*dT*d[5mC]*dT*dG*dA*dA*eA*eG*eG*eG*e[5mC]) [compound 530967]	69	30	36	48	82	91	700								
530965 (antisense eG*eG*e[5mC]*eA*e[5mC]*dA*dG*dG*dG*d[5mC]*dT*dT*d[5mC]*dA*dG*eT*eG*eA*eG*eA) [compound 530965]	73	8	5	63	83	91	800								
